Test results as given in publication PMC10955127 (Frontiers in Pharmacology, 2024).
Where two headings read alike, the source gives them in different places.

Key:
[1] = In vitro skin penetration and metabolism, fresh viable pig skin on static Franz cells
Description: Fresh viable pig skin (without hot steam treatment, by-product from meat industry) was obtained from a local, commercial butcher (Hammoor, Germany). The back skin was from female pigs (bred from “Dänische Landrasse” (female) and Pietrain (male) pigs, ~130 days old, 100 kg body weight). Pig skin samples were gently dry-shaved and washed with water before use. For the experiment, 2 replicate discs from each of 3 donors were used.
Skin of full-thickness was mounted on static Franz cells with a 4.9 cm² application area. The receptor compartment of the diffusion cell was filled with approx. 5 ml RF (1% BSA, 0.9% NaCl, 0.05% gentamycin sulfate in water), above a magnetic stirrer set to low rotation. […] The experiment was conducted using non-occluded conditions.
The dermal absorption was calculated as the total amount present within epidermis (without the amount in the total SC strips), dermis and RF.

[2] = test system: Thyroid (TR and TPO only); parameters: method as in ToxCast; settings: ref ToxCast, cited from earlier work; for Thyroid (TR and TPO only): Experimental Data (call): Tier 0
rats = settings: highest dose tested; KS2; cited from earlier work
[3] = KS2; cited from earlier work
estrogen receptor [4] = test system: estrogen receptor; parameters: method as in ToxCast database; settings: ref ToxCast database; cited from earlier work
estrogen receptor [5] = test system: estrogen receptor; parameters: method as in ToxCast database; settings: ref ToxCast database, cited from earlier work
estrogen receptor [6] = test system: estrogen receptor; parameters: method as in ToxCast database; settings: ref ToxCast database, cited from earlier work; remark: listed apart in the source
estrogen receptor [7] = test system: estrogen receptor; parameters: method as in ToxCast database; settings: ref ToxCast database, cited from earlier work; for AC50: read-out: Estrogen pathway Reporter protein Agonist: AC50
estrogen receptor [8] = test system: estrogen receptor; parameters: method as in ToxCast database; settings: ref ToxCast database; cited from earlier work; remark: listed apart in the source
estrogen receptor [9] = test system: estrogen receptor; parameters: method as in ToxCast database; settings: ref ToxCast database, cited from earlier work; remark: listed apart in the source
Aromatase = test system: Aromatase; parameters: method as in ToxCast database; settings: ref ToxCast database; cited from earlier work
thyroid pathway [10] = test system: thyroid pathway; parameters: method as in ToxCast database; settings: ref ToxCast database; cited from earlier work
TSHR = test system: TSHR; parameters: method as in ToxCast database; settings: ref ToxCast database; cited from earlier work
thyroid pathway [11] = test system: thyroid pathway; parameters: method as in ToxCast database; settings: ref ToxCast database; cited from earlier work; remark: listed apart in the source
thyroid pathway [12] = test system: thyroid pathway; parameters: method as in ToxCast database; settings: ref ToxCast database; cited from earlier work; remark: listed apart in the source
[13] = ref PubChem or the ECHA database; cited from earlier work
in vitro = in vitro ADME
Protocol: […]. Samples were precipitated with an equal volume of acetonitrile containing internal standards (1 μM diazepam, 1 μM griseofulvin, 10 μM diclofenac) and then centrifuged (4800 x g, room temperature, 5 min) before analysis by UHPLC-MS/HRMS.
The amount of compound in the samples was expressed as percentage of remaining compound compared to time point zero (=100%). These percentages were plotted against the corresponding time points. In vitro intrinsic clearance (CLint) and half-life (t1/2) estimates were determined using the rate of precursor disappearance and following formula, based on the well-stirred liver model (Obach 1999):
t1/2 = half-life [min]; k = slope from the linear regression of log [test compound] versus time plot [1/min]
Where CLint = in vitro intrinsic clearance [μl/min/10^6 cells]; t1/2 = half-life [min]; k = slope of the linear regression of log [test compound] versus time plot [1/min]; V = ratio of incubation volume and cell number and fu = unbound fraction in the blood. […]

estrogen receptor (ER) = settings: cited from earlier work; for Estrogen: Experimental Data (call): Tier 0; for Estrogen: Experimental Data (call) / Estrogen: assays active / assays: ref ToxCast
androgen receptor (AR) = test system: androgen receptor (AR); parameters: method as in ToxCast; settings: ref ToxCast, cited from earlier work
androgen receptor [14] = test system: androgen receptor; parameters: method as in ToxCast database; settings: ref ToxCast database; cited from earlier work
androgen receptor [15] = test system: androgen receptor; parameters: method as in ToxCast database; settings: ref ToxCast database; cited from earlier work; remark: listed apart in the source
androgen receptor [16] = test system: androgen receptor; parameters: method as in ToxCast database; settings: ref ToxCast database; cited from earlier work; remark: listed apart in the source
androgen receptor [17] = test system: androgen receptor; parameters: method as in ToxCast database; settings: ref ToxCast database; cited from earlier work; remark: listed apart in the source
mice = settings: KS2; cited from earlier work
[18] = parameters: method as in SCCS, 2023a; settings: frozen human skin, 14C-radio-labelled BSal in a formulation at 0.5%; ref SCCS, 2023a; cited from earlier work
[19] = 24.14 mg/kg/day product, 0.5% BSal, 10.5% absorption
[20] = parameters: method as in PubChem or the ECHA database; settings: at 25°C; ref PubChem or the ECHA database; cited from earlier work
H295R cell line [21] = test system: H295R cell line; parameters: method as in ToxCast database; settings: ref ToxCast database, cited from earlier work
H295R cell line [22] = test system: H295R cell line; parameters: method as in ToxCast database; settings: ref ToxCast database, cited from earlier work; remark: listed apart in the source
H295R cell line [23] = test system: H295R cell line; parameters: method as in ToxCast database; settings: ref ToxCast database, cited from earlier work; remark: listed apart in the source
THRa = test system: THRa; parameters: method as in ToxCast database; settings: ref ToxCast database; cited from earlier work
in vivo = settings: human
[24] = ref PubChem or the ECHA database; cited from earlier work; remark: listed apart in the source
[25] = at 35°C; ref PubChem or the ECHA database; cited from earlier work
[26] = Fraction unbound in the plasma (Fup); settings: human
[27] = 24 h after application of 0.5% BSal in formulation, mean ± SD, n = 6

O=C(O)c1ccccc1 [BA, benzoic acid]
Dermal absorption of individual analytes ([1]; 24 h, epidermis + dermis + receptor fluid): 1.2 ± 0.7 percentage of the applied dose | Total recovery ([1]; 24 h after application of 0.5% BSal in formulation, SA corrected by the amount of SA present in the formulation): 19.8 ± 17.2 percentage of the applied dose | Dermis [1, 27]: 1.2 ± 0.7 percentage of the applied dose | Epidermis [1, 27]: < LOQ* | Receptor fluid [1, 27]: < LOQ* | Stratum corneum [1, 27]: 16.8 ± 16.3 percentage of the applied dose | Surface ([1]; 24 h after application of 0.5% BSal in formulation, mean ± SD, n = 6 skin discs (three donors)): 1.7 ± 1.2 percentage of the applied dose | Thyroid (TR and TPO only): Experimental Data (call) [2]: Negative | Thyroid (TR and TPO only): assays active / assays [2]: 0/12 active | Reproductive toxicity NOAEL (rats): NOAEL 900 mg/kg bw (highest dose tested) | Developmental Toxicity NOAEL [3]: NOAEL 1306 mg/kg bw | Estrogen pathway receptor binding: Call (estrogen receptor [4]): Negative | Estrogen pathway Dimerisation: Call (estrogen receptor [5]): Negative | Estrogen pathway mRNA induction: Call (estrogen receptor [6]): Negative | Estrogen pathway Reporter protein Agonist: Call (estrogen receptor [7]): Positive | AC50 (estrogen receptor [7]): 7.54 µM | Estrogen pathway Reporter protein Antagonist: Call (estrogen receptor [8]): Negative | Estrogen pathway Cell Proliferation: Call (estrogen receptor [9]): Negative | Steroidogenesis Aromatase: Call (Aromatase): Negative | Thyroid pathway mRNA induction: Call (thyroid pathway [10]): Negative | Thyroid pathway Regulation of transcription factor activity (TSHR): Call (TSHR): Negative | Thyroid pathway Reporter protein Agonist: Call (thyroid pathway [11]): Negative | Thyroid pathway Reporter protein Antagonist: Call (thyroid pathway [12]): Negative | Vapor pressure [13]: 0.1 Pa

OCc1ccccc1 [BAlc, benzyl alcohol]
Stratum corneum [1]: < LOQ* | Surface [1]: < LOQ* | Time within which rapidly metabolized in PHH (in vitro; both, human, hepatocytes, 5 µM): ≤ 30 min | Estrogen: Experimental Data (call) (estrogen receptor (ER)): Negative | Estrogen: assays active / assays (estrogen receptor (ER)): 0/18 active | Androgen: Experimental Data (call) (androgen receptor (AR); Tier 0): Negative | Androgen: assays active / assays (androgen receptor (AR)): 0/14 active | Thyroid (TR and TPO only): Experimental Data (call) [2]: Negative | Thyroid (TR and TPO only): assays active / assays [2]: 0/12 active | Estrogen pathway Dimerisation: Call (estrogen receptor [5]): Negative | Estrogen pathway mRNA induction: Call (estrogen receptor [6]): Negative | Estrogen pathway Reporter protein Agonist: Call (estrogen receptor [7]): Negative | Estrogen pathway Reporter protein Antagonist: Call (estrogen receptor [8]): Negative | Androgen pathway Dimerisation: Call (androgen receptor [14]): Negative | Androgen pathway mRNA induction: Call (androgen receptor [15]): Negative | Androgen pathway Reporter protein Agonist: Call (androgen receptor [16]): Negative | Androgen pathway Reporter protein Antagonist: Call (androgen receptor [17]): Negative | Steroidogenesis Aromatase: Call (Aromatase): Negative | Thyroid pathway mRNA induction: Call (thyroid pathway [10]): Negative | Thyroid pathway Regulation of transcription factor activity (TSHR): Call (TSHR): Negative | Thyroid pathway Reporter protein Agonist: Call (thyroid pathway [11]): Negative | Thyroid pathway Reporter protein Antagonist: Call (thyroid pathway [12]): Negative | Vapor pressure [13]: 7 Pa | Developmental Toxicity NOAEL (mice): NOAEL: 200 mg/kg

O=C(OCc1ccccc1)c1ccccc1O [BSal, benzyl salicylate]
Receptor fluid [1]: < LOQ* | Initial concentration detected (in vitro; after 90, 120, and 240 min): 0.1%–0.2% | Initial concentration remaining (in vitro; after 30 min, 20 µM BSal): 10% | half-life at 20 µM (in vitro; both sexes, human, hepatocytes, 20 µM, 0.8 million cells/ml, read-out: Half-life in PHH): 9.2 min | hepatocyte CLint at 20 µM (in vitro; both sexes, human, hepatocytes, PHH, read-out: In vitro intrinsic clearance (CLint, in vitro)): 94.2 µL/min/1e6 cells | Skin absorption [18]: 9.01 % of the applied dose | SED total [19]: 24.14 × 0.5/100 × 10.5/100 = 0.01267 mg/kg/d | Estrogen: Experimental Data (call) (estrogen receptor (ER)): Positive | AC50 (estrogen receptor (ER); binding assay for ERα, assay name OT_ER_ERaERa_0480, ref ToxCast database, read-out: Lowest reported AC50): 36.5 µM | Estrogen: assays active / assays (estrogen receptor (ER)): 9 out of 18 | Estrogen: assays active / assays (estrogen receptor (ER); listed as Benzyl salicylate): 9/18 assays active | Thyroid (TR and TPO only): Experimental Data (call) [2]: Negative | Thyroid (TR and TPO only): assays active / assays [2]: 0/11 active | pKa [20]: 9.82 | Estrogen pathway Dimerisation: Call (estrogen receptor [5]): Positive | AC50 (estrogen receptor [5]; read-out: Estrogen pathway Dimerisation: AC50): 36.5 µM | Estrogen pathway mRNA induction: Call (estrogen receptor [6]): Positive | AC50 (estrogen receptor [6]; read-out: Estrogen pathway mRNA induction: AC50): 37 µM | Estrogen pathway Reporter protein Agonist: Call (estrogen receptor [7]): Positive | AC50 (estrogen receptor [7]): 39.2 µM | Estrogen pathway Reporter protein Antagonist: Call (estrogen receptor [8]): Negative | Estrogen pathway Cell Proliferation: Call (estrogen receptor [9]): Positive | AC50 (estrogen receptor [9]; read-out: Estrogen pathway Cell Proliferation: AC50): 85.2 µM | Steroidogenesis Aromatase: Call (Aromatase): Negative | Steroidogenesis Corticosterone in H295R cell line: call (H295R cell line [21]): Positive | AC50 (H295R cell line [21]; read-out: Steroidogenesis Corticosterone in H295R cell line: AC50): 36.8 µM | Steroidogenesis 17alpha-hydroxyprogesterone in H295R cell line: call (H295R cell line [22]): Positive | AC50 (H295R cell line [22]; read-out: Steroidogenesis 17alpha-hydroxyprogesterone in H295R cell line: AC50): 54.7 µM | Steroidogenesis Progesterone in H295R cell line: call (H295R cell line [23]): Positive | AC50 (H295R cell line [23]; read-out: Steroidogenesis Progesterone in H295R cell line: AC50): 43.7 µM | Thyroid pathway receptor binding (THRa): Call (THRa): Negative | Thyroid pathway mRNA induction: Call (thyroid pathway [10]): Negative | Thyroid pathway Regulation of transcription factor activity (TSHR): Call (TSHR): Negative | Thyroid pathway Reporter protein Agonist: Call (thyroid pathway [11]): Negative | Thyroid pathway Reporter protein Antagonist: Call (thyroid pathway [12]): Negative | NOAEL (in vivo): 123 mg/kg/day | Water solubility [24]: 8800 µg/mL | Partition coefficient (Log Pow) [25]: 4 | Vapor pressure [13]: 0.01 Pa | fraction unbound [26]: 0.0066
